The NIST ThermoML archive (doi:10.1016/j.jct.2005.01.002)

Assay: xn = mol fraction of the nth substance listed
Settings: 101 kPa, Liquid

CCCCCOCCCCC [dipentyl ether] + CN(C)C=O
mass density [kg/m3]
Settings | 298.15 K | 313.15 K | 328.15 K | 343.15 K | 358.15 K
x2 = 0.0416 | 781.66 | 771.34 | 759.02 | 746.76 | 734.14
x2 = 0.1163 | 787.12 | 776.77 | 764.39 | 752.03 | 739.41
x2 = 0.1609 | 790.65 | 780.27 | 767.84 | 755.43 | 742.78
x2 = 0.217 | 795.39 | 784.95 | 772.41 | 759.94 | 747.25
x2 = 0.2456 | 797.91 | 787.44 | 774.88 | 762.38 | 749.67
x2 = 0.3011 | 803.14 | 792.61 | 779.97 | 767.39 | 754.63
x2 = 0.3542 | 808.53 | 797.94 | 785.21 | 772.57 | 759.74
x2 = 0.4097 | 814.65 | 803.99 | 791.14 | 778.42 | 765.54
x2 = 0.457 | 820.29 | 809.57 | 796.61 | 783.81 | 770.89
x2 = 0.5002 | 825.83 | 815.04 | 801.98 | 789.12 | 776.12
x2 = 0.5187 | 828.35 | 817.52 | 804.42 | 791.51 | 778.49
x2 = 0.5486 | 832.57 | 821.67 | 808.5 | 795.54 | 782.47
x2 = 0.6123 | 842.35 | 831.31 | 817.97 | 804.87 | 791.69
x2 = 0.6525 | 849.15 | 837.99 | 824.54 | 811.37 | 798.06
x2 = 0.7141 | 860.63 | 849.31 | 835.68 | 822.37 | 808.9
x2 = 0.7678 | 872.03 | 860.55 | 846.65 | 833.17 | 819.65
x2 = 0.8272 | 886.29 | 874.58 | 860.43 | 846.76 | 833.11
x2 = 0.8585 | 894.75 | 882.91 | 868.61 | 854.86 | 840.93
x2 = 0.9152 | 911.86 | 899.77 | 885.03 | 871.15 | 857.02
x2 = 0.9534 | 924.96 | 912.63 | 897.96 | 883.55 | 869.17

CCCOCCC [dipropyl ether] + CN(C)C=O
mass density [kg/m3]
Settings | 298.15 K | 313.15 K | 328.15 K | 343.15 K | 358.15 K
x2 = 0.0499 | 749.01 | 735.06 | 720.89 | 706.81 | 692.16
x2 = 0.1072 | 756.74 | 742.84 | 728.72 | 714.64 | 699.96
x2 = 0.1515 | 763.14 | 749.17 | 735.12 | 720.81 | 706.1
x2 = 0.2129 | 772.12 | 758.15 | 743.94 | 729.67 | 714.89
x2 = 0.2528 | 778.22 | 764.23 | 749.93 | 735.72 | 720.91
x2 = 0.3142 | 787.82 | 773.92 | 759.52 | 745.25 | 730.4
x2 = 0.3508 | 793.89 | 780 | 765.58 | 751.24 | 736.39
x2 = 0.3895 | 800.55 | 786.59 | 772.07 | 757.74 | 742.88
x2 = 0.4353 | 808.57 | 794.67 | 780.13 | 765.72 | 750.85
x2 = 0.4788 | 816.49 | 802.63 | 788.03 | 773.58 | 758.7
x2 = 0.5053 | 821.46 | 807.64 | 793.01 | 778.54 | 763.66
x2 = 0.5243 | 825.12 | 811.32 | 796.66 | 782.18 | 767.29
x2 = 0.5454 | 829.23 | 815.46 | 800.8 | 786.3 | 771.4
x2 = 0.6019 | 840.66 | 826.99 | 812.28 | 797.75 | 782.85
x2 = 0.6475 | 850.32 | 836.74 | 821.98 | 807.43 | 792.53
x2 = 0.7054 | 863.22 | 849.75 | 834.83 | 820.5 | 805.64
x2 = 0.7502 | 873.74 | 860.32 | 845.39 | 830.97 | 816.13
x2 = 0.79 | 883.5 | 870.11 | 854.95 | 840.56 | 825.74
x2 = 0.8514 | 899.37 | 886.42 | 871.19 | 856.91 | 842.07
x2 = 0.9075 | 914.86 | 902.16 | 886.61 | 872.33 | 857.58
x2 = 0.9594 | 933.76 | 921.32 | 905.81 | 891.47 | 876.94
